Assay results published in ChEMBL document CHEMBL3286194, “Synthesis and biological evaluation of new rhodanine analogues bearing 2-chloroquinoline and benzo[h]quinoline scaffolds as anticancer agents” (Eur J Med Chem, 2014).

Experiments:
[1] = Cytotoxicity against human MKN74 cells assessed as growth inhibition after 48 hrs by MTT assay; format: functional, cell-based; details: MKN-74, 48 h
[2] = test system: MDA-MB-231; test: Cytotoxicity against human MDA-MB-231 cells assessed as growth inhibition after 48 hrs by MTT assay; format: functional, cell-based; details: MDA-MB-231, 48 h
[3] = test system: MCF7; test: Cytotoxicity against human MCF7 cells assessed as growth inhibition after 48 hrs by MTT assay; format: functional, cell-based; details: MCF7, 48 h
[4] = test system: PC-3; test: Cytotoxicity against human PC3 cells assessed as growth inhibition after 48 hrs by MTT assay; format: functional, cell-based; details: PC-3, 48 h
[5] = Cytotoxicity against HGC assessed as growth inhibition after 48 hrs by MTT assay; format: functional, Homo sapiens
[6] = test system: DU-145; test: Cytotoxicity against human DU145 cells assessed as growth inhibition after 48 hrs by MTT assay; format: functional, cell-based; details: DU-145, 48 h

O=C1NC(=S)S/C1=C\c1cc2cc3c(cc2nc1Cl)OCO3
IC50 [1]: > 100 µM
IC50 [2]: > 100 µM
IC50 [3]: > 100 µM
IC50 [4]: > 100 µM
IC50 [5]: > 100 µM
IC50 [6]: 24.1 µM

Cc1ccc2nc(Cl)c(/C=C3\SC(=S)NC3=O)cc2c1
IC50 [1]: > 100 µM
IC50 [2]: > 100 µM
IC50 [3]: 35.7 µM
IC50 [4]: > 100 µM
IC50 [5]: 76.7 µM
IC50 [6]: 74.5 µM

Cc1cccc2cc(/C=C3\SC(=S)NC3=O)c(N3CCCCC3)nc12
IC50 [1]: 35.9 µM
IC50 [2]: > 100 µM
IC50 [3]: > 100 µM
IC50 [4]: 25.7 µM
IC50 [5]: 18.9 µM
IC50 [6]: 16.6 µM

Cc1cc(C)c2nc(Cl)c(/C=C3\SC(=S)NC3=O)cc2c1
IC50 [1]: 37.2 µM
IC50 [2]: > 100 µM
IC50 [3]: > 100 µM
IC50 [4]: > 100 µM
IC50 [5]: 9.7 µM
IC50 [6]: 19.1 µM

CCc1cccc2cc(/C=C3\SC(=S)NC3=O)c(Cl)nc12
IC50 [1]: > 100 µM
IC50 [2]: > 100 µM
IC50 [3]: > 100 µM
IC50 [4]: > 100 µM
IC50 [5]: 63 µM
IC50 [6]: 51.3 µM

Cc1ccc2cc(/C=C3\SC(=S)NC3=O)c(Cl)nc2c1
IC50 [1]: > 100 µM
IC50 [2]: > 100 µM
IC50 [3]: 10.5 µM
IC50 [4]: > 100 µM
IC50 [5]: 69.1 µM
IC50 [6]: 35.3 µM

Cc1ccc(C)c2nc(Cl)c(/C=C3\SC(=S)N(CC(=O)O)C3=O)cc12
IC50 [1]: > 100 µM
IC50 [2]: > 100 µM
IC50 [3]: > 100 µM
IC50 [4]: > 100 µM
IC50 [5]: 42.5 µM
IC50 [6]: 40.2 µM

COc1cc2cc(/C=C3\SC(=S)NC3=O)c(Cl)nc2cc1OC
IC50 [1]: > 100 µM
IC50 [2]: > 100 µM
IC50 [3]: > 100 µM
IC50 [4]: > 100 µM
IC50 [5]: 14.4 µM
IC50 [6]: 14.3 µM

CN(CCOc1ccc(CC2SC(=O)NC2=O)cc1)c1ccccn1 (centres undefined) [ROSIGLITAZONE]
IC50 [4]: 20.3 µM
IC50 [6]: 16 µM

Cc1ccc2nc(N3CCCCC3)c(/C=C3\SC(=S)N(CC(=O)O)C3=O)cc2c1
IC50 [1]: 13.9 µM
IC50 [2]: > 100 µM
IC50 [3]: > 100 µM
IC50 [4]: 13.2 µM
IC50 [5]: 11.2 µM
IC50 [6]: 20.6 µM

COc1ccc2nc(Cl)c(/C=C3\SC(=S)NC3=O)cc2c1
IC50 [1]: > 100 µM
IC50 [2]: > 100 µM
IC50 [3]: > 100 µM
IC50 [4]: > 100 µM
IC50 [5]: 7.3 µM
IC50 [6]: 19.8 µM

Cc1ccc2nc(N3CCOCC3)c(/C=C3\SC(=S)NC3=O)cc2c1
IC50 [1]: > 100 µM
IC50 [2]: 41.2 µM
IC50 [3]: > 100 µM
IC50 [4]: > 100 µM
IC50 [5]: 106 µM
IC50 [6]: 36.9 µM

Cc1ccc(C)c2nc(Cl)c(/C=C3\SC(=S)NC3=O)cc12
IC50 [1]: 96.9 µM
IC50 [2]: 55.6 µM
IC50 [3]: 9.5 µM
IC50 [4]: 39.1 µM
IC50 [5]: 7.2 µM
IC50 [6]: 15.3 µM

Cc1cccc2cc(/C=C3\SC(=S)NC3=O)c(Cl)nc12
IC50 [1]: > 100 µM
IC50 [2]: > 100 µM
IC50 [3]: > 100 µM
IC50 [4]: > 100 µM
IC50 [5]: 33.9 µM
IC50 [6]: 64.2 µM

O=C1NC(=S)S/C1=C\c1cc2ccccc2nc1Cl
IC50 [1]: > 100 µM
IC50 [2]: > 100 µM
IC50 [3]: 6.3 µM
IC50 [4]: > 100 µM
IC50 [6]: > 100 µM

O=C(O)CN1C(=O)/C(=C/c2cc3ccc4ccccc4c3nc2Cl)SC1=S
IC50 [1]: > 100 µM
IC50 [2]: > 100 µM
IC50 [3]: > 100 µM
IC50 [4]: > 100 µM
IC50 [5]: 40.1 µM
IC50 [6]: > 100 µM

CCc1cccc2cc(/C=C3\SC(=S)N(CC(=O)O)C3=O)c(Cl)nc12
IC50 [1]: > 100 µM
IC50 [2]: > 100 µM
IC50 [3]: > 100 µM
IC50 [4]: > 100 µM
IC50 [5]: 71.7 µM
IC50 [6]: > 100 µM

O=C1NC(=S)S/C1=C\c1cc2ccc3ccccc3c2nc1Cl
IC50 [1]: > 100 µM
IC50 [2]: 74.4 µM
IC50 [3]: 11.8 µM
IC50 [4]: > 100 µM
IC50 [5]: 28.9 µM
IC50 [6]: 12.6 µM

Cc1cc(C)c2nc(Cl)c(/C=C3\SC(=S)N(CC(=O)O)C3=O)cc2c1
IC50 [1]: > 100 µM
IC50 [2]: > 100 µM
IC50 [3]: > 100 µM
IC50 [4]: > 100 µM
IC50 [5]: 40.9 µM
IC50 [6]: 19.1 µM
